Results from US9255094B2, “Pyrido[4,3-B]indoles and methods of use” (Medivation Technologies, Inc., priority 2009, dated 2016).

Key:
[1] = biological target: T1, rat adrenergic α1A receptor (Rattus norvegicus, UniProt P43140); test: Adrenergic α1A radioligand binding assay ([3H]Prozosin); conditions: compound at 0.1 μM; 0.25 nM [3H]Prozosin; Wistar Rat submaxillary glands; read-out: Percent Inhibition of ligand binding, Adrenergic (0.1 μM) a1A
T1 construct: from tissue; host or cells: Wistar Rat submaxillary glands
T1 sequence (P43140 1-466): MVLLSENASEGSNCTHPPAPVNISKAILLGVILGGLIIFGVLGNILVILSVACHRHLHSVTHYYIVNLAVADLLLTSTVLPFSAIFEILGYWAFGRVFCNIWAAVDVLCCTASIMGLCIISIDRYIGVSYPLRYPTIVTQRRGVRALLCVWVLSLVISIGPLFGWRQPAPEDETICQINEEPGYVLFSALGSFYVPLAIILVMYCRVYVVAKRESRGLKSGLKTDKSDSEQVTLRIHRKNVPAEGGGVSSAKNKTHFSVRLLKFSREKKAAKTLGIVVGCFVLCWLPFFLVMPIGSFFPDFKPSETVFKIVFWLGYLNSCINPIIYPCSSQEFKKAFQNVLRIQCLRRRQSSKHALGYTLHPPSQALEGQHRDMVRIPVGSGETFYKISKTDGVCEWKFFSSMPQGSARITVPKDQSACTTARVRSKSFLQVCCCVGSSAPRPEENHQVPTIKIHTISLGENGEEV
Experimental: To evaluate in radioligand binding assays the activity of compounds of the invention, rat adrenergic α1A receptor obtained from Wistar Rat submaxillary glands (Michel, A. D. et al., Br. J. Pharmacol. 98:883, 1989) in a modified Tris-HCl buffer (50 mM Tris-HCl buffer, pH 7.4, 0.5 mM EDTA) is used. Compounds of the invention are incubated with 0.25 nM [^3H]Prozosin for 60 min at 25° C. Non-specific binding is estimated in the presence of 10 μM phentolamine. Receptor proteins are filtered and washed, the filters are then counted to determine [^3H]Prozosin specifically bound. Compounds of the invention are screened at 1 μM or lower, using 1% DMSO as vehicle. Compounds of the invention are tested in this biochemical assay and percent inhibition of specific binding is determined.

[2] = biological target: T2, human recombinant serotonin (5-Hydroxytryptamine) 5-HT2A receptor (Homo sapiens, UniProt P28223); test: Serotonin 5-HT2A radioligand binding assay ([3H]Ketanserin); conditions: compound at 0.1 μM; 0.5 nM [3H]Ketanserin; CHO-K1 cells; read-out: Percent Inhibition of ligand binding, Serotonin (0.1 μM) 5-HT2A
T2 construct: expressed in transfected cells; host or cells: Chinese hamster ovary (CHO-K1) cells
Experimental: Compounds of the invention were incubated with 0.5 nM [^3H]Ketanserin for 60 min at 25° C. Non-specific binding was estimated in the presence of 1 μM Mianserin. Receptor proteins were filtered and washed, the filters were then counted to determine [^3H]Ketanserin specifically bound. Compounds were screened at 1 μM or lower, using 1% DMSO as vehicle. Biochemical assay results are presented as the percent inhibition of specific binding in Table 4.

[3] = biological target: T3, human recombinant adrenergic α1D receptor (Homo sapiens, UniProt P25100); test: Adrenergic α1D radioligand binding assay ([3H]Prozosin); conditions: compound at 0.1 μM; 0.6 nM [3H]Prozosin; HEK-293 cells; read-out: Percent Inhibition of ligand binding, Adrenergic (0.1 μM) a1D
T3 construct: expressed in transfected cells; host or cells: human embryonic kidney (HEK-293) cells
T3 sequence (P25100 1-572): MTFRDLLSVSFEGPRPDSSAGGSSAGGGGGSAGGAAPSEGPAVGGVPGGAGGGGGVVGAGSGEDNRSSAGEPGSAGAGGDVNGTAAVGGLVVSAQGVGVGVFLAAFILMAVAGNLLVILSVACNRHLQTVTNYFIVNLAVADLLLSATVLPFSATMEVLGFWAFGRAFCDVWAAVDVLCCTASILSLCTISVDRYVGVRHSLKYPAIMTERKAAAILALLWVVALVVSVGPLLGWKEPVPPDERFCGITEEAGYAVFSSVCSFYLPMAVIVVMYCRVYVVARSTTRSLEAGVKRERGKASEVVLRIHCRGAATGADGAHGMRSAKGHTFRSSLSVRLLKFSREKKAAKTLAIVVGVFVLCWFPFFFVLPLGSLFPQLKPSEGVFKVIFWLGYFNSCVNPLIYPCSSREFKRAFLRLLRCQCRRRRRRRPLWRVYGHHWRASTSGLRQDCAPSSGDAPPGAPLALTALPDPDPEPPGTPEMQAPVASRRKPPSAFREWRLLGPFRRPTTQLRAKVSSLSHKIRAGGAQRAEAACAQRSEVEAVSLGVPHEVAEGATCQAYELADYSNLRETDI
Experimental: Compounds of invention were incubated with 0.6 nM [^3H]Prozosin for 60 min at 25° C. Non-specific binding was estimated in the presence of 10 μM phentolamine Receptor proteins were filtered and washed, the filters were then counted to determine [^3H]Prozosin specifically bound.

[4] = biological target: T4, human recombinant adrenergic α2A receptor (Homo sapiens, UniProt P08913); test: Adrenergic α2A radioligand binding assay ([3H]MK-912); conditions: compound at 0.1 μM; 1 nM [3H]MK-912; insect Sf9 cells; read-out: Percent Inhibition of ligand binding, Adrenergic (0.1 μM) a2A
T4 construct: expressed in transfected cells; host or cells: insect Sf9 cells
T4 sequence (P08913 1-465): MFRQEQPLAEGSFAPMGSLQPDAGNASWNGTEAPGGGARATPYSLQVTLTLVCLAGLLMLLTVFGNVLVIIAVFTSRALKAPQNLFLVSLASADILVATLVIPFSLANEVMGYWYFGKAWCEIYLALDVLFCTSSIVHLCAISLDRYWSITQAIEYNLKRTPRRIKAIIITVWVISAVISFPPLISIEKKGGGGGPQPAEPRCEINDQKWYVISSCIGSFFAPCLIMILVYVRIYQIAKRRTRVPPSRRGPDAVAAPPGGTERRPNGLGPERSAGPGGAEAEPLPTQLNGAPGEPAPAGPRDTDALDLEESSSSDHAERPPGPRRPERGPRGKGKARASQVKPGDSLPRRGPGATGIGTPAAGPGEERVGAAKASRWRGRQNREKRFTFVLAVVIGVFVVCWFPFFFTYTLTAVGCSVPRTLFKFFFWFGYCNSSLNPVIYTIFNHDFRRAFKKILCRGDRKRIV
Experimental: To evaluate in radioligand binding assays the activity of compounds of the invention, human recombinant adrenergic α2A receptor expressed in insect Sf9 cells (Uhlen S et al. J. Pharmacol. Exp. Ther. 271:1558, 1994) in a modified Tris-HCl buffer (50 mM Tris-HCl, pH 7.4, 12.5 mM MgCl2, 2 mM EDTA) was used. Compounds of invention were incubated with 1 nM [^3H]MK-912 for 60 min at 25° C. MK912 is (2S-trans)-1,3,4,5′,6,6′,7,12b-octahydro-1′,3′-dimethyl-spiro[2H-benzofuro[2,3-a]quinolizine-2,4′(1′H)-pyrimidin]-2′(3′H)-one hydrochloride Non-specific binding was estimated in the presence of 10 μM WB-4101 (2-(2,6-dimethoxyphenoxyethyl)aminomethyl-1,4-benzodioxane hydrochloride). Receptor proteins were filtered and washed, the filters were then counted to determine [^3H]MK-912 specifically bound.

T2 sequence (P28223 whole entry): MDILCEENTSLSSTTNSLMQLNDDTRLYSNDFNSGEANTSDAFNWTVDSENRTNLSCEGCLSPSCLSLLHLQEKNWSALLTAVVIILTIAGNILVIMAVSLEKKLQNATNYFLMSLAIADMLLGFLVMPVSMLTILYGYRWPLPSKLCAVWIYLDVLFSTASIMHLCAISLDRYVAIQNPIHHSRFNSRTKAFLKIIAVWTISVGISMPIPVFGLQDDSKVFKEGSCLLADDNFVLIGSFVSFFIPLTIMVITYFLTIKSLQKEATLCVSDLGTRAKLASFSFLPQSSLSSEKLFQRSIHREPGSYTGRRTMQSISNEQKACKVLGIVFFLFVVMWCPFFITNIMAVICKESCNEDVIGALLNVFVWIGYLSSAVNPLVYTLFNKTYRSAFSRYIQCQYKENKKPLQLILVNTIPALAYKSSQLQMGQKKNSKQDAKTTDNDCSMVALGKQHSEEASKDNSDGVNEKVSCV

SMILES	inhibition at 0.1 µM [1] [%]	inhibition at 0.1 µM [2] [%]	inhibition at 0.1 µM [3] [%]	inhibition at 0.1 µM [4] [%]
COc1ccc([C@](C)(O)Cn2c3c(c4cc(C)ccc42)CN(C)CC3)cc1 [Compound 1-20, (S)-1-(2,8-Dimethyl-3,4-dihydro-1H-pyrido[4,3-b]indol-5(2H)-yl)-2-(4-methoxyphenyl)propan-2-ol]	13	91	22	57
CC[C@](O)(Cn1c2c(c3cc(C)ccc31)CN(C)CC2)c1ccc(F)cc1 [Compound 1-60, (R)-1-(2,8-Dimethyl-3,4-dihydro-1H-pyrido[4,3-b]indol-5(2H)-yl)-2-(4-fluorophenyl)butan-2-ol]	-8	67	13	3
CCCC[C@](O)(Cn1c2c(c3cc(Cl)ccc31)CN(C)CC2)c1ccc(F)cc1 [Compound 1-61, (R)-1-(8-Chloro-2-methyl-3,4-dihydro-1H-pyrido[4,3-b]indol-5(2H)-yl)-2-(4-fluorophenyl)hexan-2-ol]	1	81	14	-7
CC[C@@](O)(Cn1c2c(c3cc(C)ccc31)CN(C)CC2)c1ccncc1 [Compound 1-62, (S)-1-(2,8-Dimethyl-3,4-dihydro-1H-pyrido[4,3-b]indol-5(2H)-yl)-2-(pyridine-4-yl)butan-2-ol]	10	43	6	10
CC[C@](O)(Cn1c2c(c3cc(C)ccc31)CN(C)CC2)c1ccncc1 [Compound 1-63, (R)-1-(2,8-Dimethyl-3,4-dihydro-1H-pyrido[4,3-b]indol-5(2H)-yl)-2-(pyridine-4-yl)butan-2-ol]	8	21	-13	12
Cc1ccc2c(c1)c1c(n2CCc2ccc(C)nc2)CCN(CC(F)(F)F)C1 [Compound 1-65, 8-methyl-5-(2-(6-methylpyridin-3-yl)ethyl)-2-(2,2,2-trifluoroethyl)-2,3,4,5-tetrahydro-1H-pyrido[4,3-b]indole]	-10	-10	4	6
CC[C@@](O)(Cn1c2c(c3cc(C)ccc31)CN(C)CC2)c1ccc(F)cc1 [Compound 1-66, (S)-1-(2,8-dimethyl-3,4-dihydro-1H-pyrido[4,3-b]indol-5(2H)-yl)-2-(4-fluorophenyl)butan-2-ol]	-1	77		29
